# Legend:
# [1] = molecular target: human rec ACSS2 (Homo sapiens (Human), UniProt Q9NR19); assay: Biochemical activity ACSS2 assay (AMP-Glo); conditions: human recombinant ACSS2, AMP-Glo, 180 min at 37° C.
# Summary of the method: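 1 nM C-term myc-tagged recombinant human ACSS2 with 100 μM ATP, 100 μM Coenzyme A and 500 μM acetate (final concentrations), pH 7.5, 180 min at 37° C, compound from 30 μM over 10 concentrations. Released AMP quantified by AMP-Glo luminescence; zero set with 5 μM reference ACSS2 inhibitor, IC50 derived.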
# [2] = molecular target: ACSS2 (Homo sapiens (Human), UniProt Q9NR19); assay: Cellular assay of 14C acetate incorporation into fatty acids (IC50 ACSS2 cellular lipids); assay type: cell-based; conditions: HCT-15 cells
# ACSS2, sequence (Q9NR19 whole entry): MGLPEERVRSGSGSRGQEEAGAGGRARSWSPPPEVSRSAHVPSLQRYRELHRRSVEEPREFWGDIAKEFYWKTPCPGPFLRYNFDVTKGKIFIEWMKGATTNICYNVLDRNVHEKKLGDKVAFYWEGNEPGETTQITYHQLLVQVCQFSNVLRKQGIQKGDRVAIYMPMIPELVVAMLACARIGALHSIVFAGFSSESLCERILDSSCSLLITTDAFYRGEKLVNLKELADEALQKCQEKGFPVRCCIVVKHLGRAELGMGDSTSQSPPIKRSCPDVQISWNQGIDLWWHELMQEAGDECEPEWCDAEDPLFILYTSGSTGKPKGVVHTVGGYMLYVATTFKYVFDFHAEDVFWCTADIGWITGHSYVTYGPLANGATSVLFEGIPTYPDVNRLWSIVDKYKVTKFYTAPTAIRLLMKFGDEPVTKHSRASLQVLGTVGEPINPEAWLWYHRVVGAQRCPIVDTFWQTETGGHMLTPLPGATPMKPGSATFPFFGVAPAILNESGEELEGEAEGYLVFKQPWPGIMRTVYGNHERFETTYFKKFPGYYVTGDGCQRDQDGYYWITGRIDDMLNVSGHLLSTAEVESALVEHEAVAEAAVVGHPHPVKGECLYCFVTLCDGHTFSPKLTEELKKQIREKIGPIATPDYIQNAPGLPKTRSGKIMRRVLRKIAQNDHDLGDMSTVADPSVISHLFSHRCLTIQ
# Method: Cellular Assay of ^14C Acetate Incorporation into Fatty Acids (IC50 ACSS2 Cellular Lipids)
# This protocol describes a cellular assay capable to quantify endogenous fatty acid synthesis activity in the human HCT-15 cancer cell line following the incorporation of extracellularly administered radiolabeled ^14C acetate with a scintillation proximity based read out on extracted fatty acids.
# HCT-15 cells were grown in RPMI 1640 (Gibco) supplemented with 2 mM glutamine, 1 mM sodium pyruvate 10 mM HEPES and 10% FCS (heat-inactivated) passaged every 2-3 days to remain a subconfluent, vital culture. A working cell bank was prepared with each aliquot containing 1×10^7 viable cells. After thawing, these cells are dilute immediately 1:20 in pre-warmed (37° C.) culture medium. Cells are collected by centrifugation at 200×g for 5 min, and the supernatant is replaced by 30 mL of fresh culture medium per aliquot to obtain a cell suspension containing 350000 cells/ml. From this cell suspension 100 μL are dispersed into each well of a collagen coated 96 well plate, (black, clear bottom, PS, F-bottom, Greiner) and culture for 24 h (37° C., 5% CO2). After incubation the culture medium is removed and the wells are washed once with 100 μL PBS++(supplemented with Mg^2+/Ca^2+, Gibco) and 50 μL assay medium (RPMI 1640+10 mM HEPES) are added to each well. Compounds serial dilutions are prepared from 10 mM stock solutions in DMSO using a fixed dilution factor (usually 1:3). After preparation of the dilution series in DMSO, the individual dilutions are further diluted in the assay medium. This working dilution is prepared such, that the concentration is 7× of the final concentration in the assay. The maximal DMSO concentration in the final assay is 0.1%.
# To each well 10 μL compound working dilution or DMSO blank are added and the cells are cultured for 2 h (37° C., 5% CO2). Then 10 μL AlamarBlue reagent (Invitrogen) containing 14 μCi/mL 14C-acetate (Perkin Elmer) are added to each well (70 μl total volume) and cells are again cultured for 2 h. Cell viability is verified by measuring the AlamarBlue fluorescence (Tecan Safire, ex: 544 nm/em: 590 nm). After incubation the culture medium is removed and the wells are carefully washed once with cold 100 μL PBS++. For cell lysis and fatty acid recovery 50 μl 0.1 M NaOH and 0.1% Triton-X100 are added per well. The plate is sealed with PlateLoc (clear peelable heat seal, Agilent) and incubate at 70° C. for 16-24 h. After cooling to room temperature, the plates are centrifuged for 1 min at 1000 rpm and the plate seals are removed. For acidification 150 μL 0.1 M HCl are added to each well, mixed and 150 μL of the mixture are transferred into a 96 well FlashPlate (Perkin Elmer). The plates are sealed with TopSeal-A (Perkin Elmer). To allow for the fatty acid binding to the well surfaces the plates are incubate for 4 h at 70° C. After cooling to room temperature, the plates are centrifuged for 1 min at 1000 rpm and stored for 0.5-2h at room temperature in the dark. Radioactivity from ^14C incorporation into fatty acids in the wells is measured as CPM count in a MicroBeta scintillation counter (Perkin Elmer).
# [3] = system: CHO-K1 cells; assay: Micronucleus assay (MNT) in vitro; assay type: cell-based; design: key: A: negative, putative negative (micronuclei detected beyond threshold of 60% cyctotoxicity); B: positive; conditions: 24 hrs treatment, 0.2 μM to 100 μM
# Method: The in vitro MNT assay is performed in CHO-K1 cells due to their stable and well-characterized karyotype, high sensitivity and suitability for a high content imaging approach. They have a basal spontaneous micronucleus frequency of 3-4%.
# 24 hrs after plating CHO-K1 cells are treated with test compounds for 24 hrs (in duplicates; fixed concentration ranges from 0.2 μM to 100 μM in 2-fold dilution steps). After a medium change cells are incubated for 24 hrs with Cytochalasin B to block cytokinesis and are then fixed and nuclei/micronuclei visualized with a DNA stain. Images are acquired with the Molecular Devices high content imagers IXU or IXM and are analyzed with the dedicated MetaXpress software micronucleus module. Criteria for scoring of micronuclei (MN) are the following: • diameter of the MN should be less than ⅓ of the main nucleus • MN should be separated from or marginally overlap with main nucleus (=no blebs) • MN should have similar staining as the main nucleus
# At least 1000 binucleated cells are evaluated per treatment replicate. Mitomycin C is used as reference stimulator of micronucleus formation. Cytotoxicity is evaluated in parallel and defined by comparing total nuclei count in compound-treated samples to neutral control samples treated with vehicle only (1% DMSO) (100% cytotoxicity means all cells are dead or lost).
# A test compound is regarded as POSITIVE if generation of micronuclei and exhibition of less than 60% cytotoxicity at the same concentration can be observed.
# Compounds are scored only in the soluble concentration range.
# Experimental data of the compounds shown in Table 1 in the MNT assay are shown in Table 2 below and classified in the following groups: […]
# human rec ACSS2, sequence (Q9NR19 whole entry): as above
SMILES,IC50 [1],IC50 [2],MNT [3]
"CCn1c(C(O)(c2ccccc2)c2cccs2)nc2nc(OC)c(-c3nnn[nH]3)cc21 (racemic) [Compound 35, [1-ethyl-5-methoxy-6-(1H-1,2,3,4-tetrazol-5-yl)-1H-imidazo[4,5-b]pyridin-2-yl](phenyl)(thiophen-2-yl)methanol]",1 to 10 nM,0.01 to 1 nM,A
"CCn1c(C(O)(c2ccccc2)c2ncccn2)nc2nc(OC)c(-c3nnn[nH]3)cc21 (racemic) [Compound 37, [1-ethyl-5-methoxy-6-(1H-1,2,3,4-tetrazol-5-yl)-1H-imidazo[4,5-b]pyridin-2-yl](phenyl)(pyrimidin-2-yl)methanol]",1 to 10 nM,1 to 10 nM,A
"CCn1c(C(O)(c2ccccc2)c2ccccn2)nc2nc(OC)c(-c3nnn[nH]3)cc21 (racemic) [Compound 50, [1-ethyl-5-methoxy-6-(1H-1,2,3,4-tetrazol-5-yl)-1H-imidazo[4,5-b]pyridin-2-yl](phenyl)(pyridin-2-yl)methanol]",1 to 10 nM,0.01 to 1 nM,A
"CCc1c(C(O)(c2ccccc2)c2ccccn2)nc2cc(OC)c(-c3nnn[nH]3)cn12 (single isomer, unassigned) [Compound 11, [3-Ethyl-7-methoxy-6-(1H-tetrazol-5-yl)-imidazo[1,2-a]pyridin-2-yl]-phenyl-pyridin-2-yl-methanol]",1 to 10 nM,1 to 10 nM,A
"CCn1c(C(O)(c2ccccc2)c2ccccn2)nc2nc(OC)c(-c3nnn[nH]3)cc21 (single isomer, unassigned) [Compound 40, [1-ethyl-5-methoxy-6-(1H-1,2,3,4-tetrazol-5-yl)-1H-imidazo[4,5-b]pyridin-2-yl](phenyl)(pyridin-2-yl)methanol]",1 to 10 nM,1 to 10 nM,A
"CCc1c(C(O)(c2ccccc2)c2ccccc2)nc2cc(OC)c(-c3nnn[nH]3)cn12 [Compound 2, [3-Ethyl-7-methoxy-6-(1H-tetrazol-5-yl)-imidazo[1,2-a]pyridin-2-yl]-diphenyl-methanol]",1 to 10 nM,1 to 10 nM,A
"CCc1c(C(O)(c2ccccc2)c2ccccc2)nc2cc(F)c(-c3nnn[nH]3)cn12 [Compound 3, [3-Ethyl-7-fluoro-6-(1H-tetrazol-5-yl)-imidazo[1,2-a]pyridin-2-yl]-diphenyl-methanol]",1 to 10 nM,10 to 100 nM,A
"CCc1c(C(O)(c2ccccc2)c2ccccc2)nc2ccc(-c3nnn[nH]3)cn12 [Compound 4, [3-Ethyl-6-(1 H-tetrazol-5-yl)-imidazo[1,2-a]pyridin-2-yl]-diphenyl-methanol]",10 to 100 nM,10 to 100 nM,A
"CCc1c(C(O)(c2ccccc2F)c2ccccc2F)nc2cc(Cl)c(-c3nnn[nH]3)cn12 [Compound 5, [7-Chloro-3-ethyl-6-(1H-tetrazol-5-yl)-imidazo[1,2-a]pyridin-2-yl]-bis-(2-fluoro-phenyl)-methanol]",1 to 10 nM,10 to 100 nM,A
"CCc1c(C(O)(c2ccccc2F)c2ccccc2F)nc2cc(OC)c(-c3nnn[nH]3)cn12 [Compound 6, [3-Ethyl-7-methoxy-6-(1H-tetrazol-5-yl)-imidazo[1,2-a]pyridin-2-yl]-bis-(2-fluoro-phenyl)-methanol]",1 to 10 nM,1 to 10 nM,A
"CCc1c(C(O)(c2ccccc2)c2ccccc2)nc2cc(Cl)c(-c3nnn[nH]3)cn12 [Compound 9, [7-Chloro-3-ethyl-6-(1H-tetrazol-5-yl)-imidazo[1,2-a]pyridin-2-yl]-diphenyl-methanol]",1 to 10 nM,1 to 10 nM,A
"CCc1c(C(O)(c2ccccc2F)c2ccccc2F)nn2cc(OC)c(-c3nnn[nH]3)cc12 [Compound 19, [3-Ethyl-6-methoxy-5-(1H-tetrazol-5-yl)-pyrazolo[1,5-a]pyridin-2-yl]-bis-(2-fluoro-phenyl)-methanol]",1 to 10 nM,1 to 10 nM,A
"CCc1c(C(O)(c2ccccc2)c2ccccc2)nn2cc(Cl)c(-c3nnn[nH]3)cc12 [Compound 21, [6-Chloro-3-ethyl-5-(1H-tetrazol-5-yl)-pyrazolo[1,5-a]pyridin-2-yl]-diphenyl-methanol]",1 to 10 nM,1 to 10 nM,A
"CCc1c(C(O)(c2ccccc2)c2ccccc2)nn2cc(OC)c(-c3nnn[nH]3)cc12 [Compound 22, [3-Ethyl-6-methoxy-5-(1H-tetrazol-5-yl)-pyrazolo[1,5-a]pyridin-2-yl]-diphenyl-methanol]",1 to 10 nM,1 to 10 nM,A
"COc1nc2nc(C(O)(c3ccccc3)c3ccccc3)n(CCO)c2cc1-c1nnn[nH]1 [Compound 34, 2-[2-(hydroxy-diphenylmethyl)-5-methoxy-6-(1H-1,2,3,4-tetrazol-5-yl)-1H-imidazo[4,5-b]pyridin-1-yl]ethan-1-ol]",1 to 10 nM,10 to 100 nM,A
"CCn1c(C(O)(c2cccs2)c2cccs2)nc2nc(OC)c(-c3nnn[nH]3)cc21 [Compound 38, [1-ethyl-5-methoxy-6-(1H-1,2,3,4-tetrazol-5-yl)-1H-imidazo[4,5-b]pyridin-2-yl]bis(thiophen-2-yl)methanol]",1 to 10 nM,10 to 100 nM,A
"CCn1c(C(O)(c2ccccc2)c2ccccc2)nc2nc(Cl)c(-c3nnn[nH]3)cc21 [Compound 51, [5-chloro-1-ethyl-6-(1H-1,2,3,4-tetrazol-5-yl)-1H-imidazo[4,5-b]pyridin-2-yl]diphenylmethanol]",1 to 10 nM,10 to 100 nM,A
"CCn1c(C(O)(c2ccccc2F)c2ccccc2F)nc2nc(OC)c(-c3nnn[nH]3)cc21 [Compound 57, [1-ethyl-5-methoxy-6-(1H-1,2,3,4-tetrazol-5-yl)-1H-imidazo[4,5-b]pyridin-2-yl]bis(2-fluorophenyl)methanol]",0.01 to 1 nM,0.01 to 1 nM,A
"CCn1c(C(O)(c2ccccc2)c2ccccc2)nc2nc(OC)c(-c3nnn[nH]3)cc21 [Compound 58, [1-ethyl-5-methoxy-6-(1H-1,2,3,4-tetrazol-5-yl)-1H-imidazo[4,5-b]pyridin-2-yl]diphenylmethanol]",0.01 to 1 nM,0.01 to 1 nM,A
"CCn1c(C(O)(c2ccccc2F)c2ccccc2F)nc2nc(C)c(-c3nnn[nH]3)cc21 [Compound 59, [1-ethyl-5-methyl-6-(1H-1,2,3,4-tetrazol-5-yl)-1H-imidazo[4,5-b]pyridin-2-yl]bis(2-fluorophenyl)methanol]",1 to 10 nM,10 to 100 nM,A
